Patent US20080096989A1, “Flame Retardant Expanded Polystyrene Foam Compositions” (ALBEMARLE CORPORATION, priority 2004, published 2008)

Assay: Thermal HBr Measurement Test (thermal stability)
Type: physicochemical
Conditions: heated about 15 minutes at about 220° C. under nitrogen; average of duplicate; lower = more thermally stable
Method: The thermal stability of N,2-3-dibromopropyl-4,5-dibromohexahydrophthalimde (“compound (I)”) used in accordance with the present invention was evaluated using the Thermal HBr Measurement Test.
First, a sample of from about 0.5 to about 1.0 g flame retardant was weighed into a three neck 50 mL round bottom flask. Teflon tubing was then attached to one of the openings in the flask. Nitrogen was fed into the flask through the Teflon tubing at a flow rate of about 0.5 SCFH. A small reflux condenser was attached to another opening on the flask. The third opening was plugged. An about 50 vol % solution of glycol in water at a temperature of about 85° C. was run through the reflux condenser. Viton tubing was attached to the top of the condenser and to a gas-scrubbing bottle. Two more bottles were attached in series to the first. All three bottles had about 90 mL of about 0.1 N NaOH solutions. After assembling the apparatus, the nitrogen was allowed to purge through the system for about 2 minutes. The round bottom flask was then placed into an oil bath at about 220° C. and the sample was heated for about 15 minutes. The flask was then removed from the oil bath and the nitrogen was allowed to purge for about 2 minutes. The contents of the three gas scrubbing bottles were transferred to a 600 mL beaker. The bottles and viton tubing were rinsed into the beaker. […]

## O=C1C2CC(Br)C(Br)CC2C(=O)N1CC(Br)CBr (stereo not shown) [compound I, N,2-3-dibromopropyl-4,5-dibromohexahydrophthalimde]
  HBr (ppm): 2,058 ppm
